Data as given in patent USRE48898E1, “Prodrugs of 2,4-pyrimidinediamine compounds and their uses” (Rigel Pharmaceuticals, Inc., priority 2006, dated 2022).
Entries after “also recorded” stand apart in the source; their conditions may differ. Structures can show the parent of a compound that is named as a salt. Where two headings read alike, the source gives them in different places. Blank lines part the entries; values can stand above or below the molecule they belong to.

Columns and labels:
[1] = Moisture sorption analysis; assay type: physicochemical
Method: The sample for moisture analysis was allowed to dry at 25° C. for up to 4 hours under a stream of dry nitrogen. The relative humidity was then increased stepwise from 10 to 90% relative humidity (adsorption scan) allowing the sample to equilibrate for a maximum of four hours before weighing and moving on to the next step. The desorption scan was measured from 85 to 0% relative humidity with the same equilibration time. The sample was then dried at 80° C. for 2 hours or until no weight loss was observed under a stream of dry nitrogen.

Water solubility = assay type: physicochemical
Stability in rat plasma = assay type: in vitro ADME
Excerpt: The presence of Phosphatase activity in rat plasma was confirmed using p-nitrophenyl phosphate—a known substrate for phosphatase.

[2] = Conversion of prodrug to drug in microsome preparations; assay type: in vitro ADME, rat
Excerpt: Although phosphate-containing prodrugs suitable for oral administration are of interest, skilled artisans will appreciate that prodrugs including phosphate-containing progroups R^p can be administered via other routes of administration, as phosphatases are distributed throughout the body. […] Thus, the only requirement is that the particular phosphate-containing progroup R^p selected should be removable under the conditions of intended use.

[3] = Stability under acidic and neutral conditions; assay type: physicochemical; details: acidic and neutral conditions at 37° C.
[4] = Pharmacokinetics, IV and oral dosing; assay type: in vivo, Sprague-Dawley rats
Method: Prodrug Compound 4 was tested for oral bioavailability. For the study, the prodrug was dissolved in various vehicles (e.g. PEG 400 solution and CMC suspension) for intravenous and oral dosing in the rats. […] Following administration of the prodrug and/or drug, plasma samples were obtained and extracted. The plasma concentrations of the prodrug and/or drug were determined by high performance liquid chromatography/tandem mass spectrometry (LC/MS/MS) methods. Pharmacokinetic analyses were performed based on the plasma concentration data. The pharmacokinetic parameters of interest include Clearance (CL), Volume of distribution at steady-state (Vss), terminal half-life (t ½), and oral bioavailability (% F).
Referring to FIG. 4, PK profiles are shown for IV and PO administration in Sprague-Dawley rats. For IV administration, Compound 4 was dissolved in PEG-400 and administered at a dose of 1 mg/kg.
FIG. 5 summarizes the PK parameters for the study described in FIG. 4.
FIG. 11 illustrates the absorption of prodrug Compound 4 from different vehicles. […] Prodrug Compound 4 is absorbed equally well in solution formulations (PEG-400 and carboxymethylcellulose (CMC)) and as a powder in hard gelatin capsules.

[5] = system: collagen-induced arthritis; assay: Collagen-induced arthritis (CIA); assay type: in vivo, Syngeneic LOU rats
Excerpt: One of the experimental models for IC-mediated tissue injury is the CIA in rodents (Kleinau et al., 2000, J. Exp. Med. 191:1611-1616). Injection of type II collagen (CII) into rodents produces an immune reaction that characteristically involves inflammatory destruction of cartilage and bone of the distal joints with concomitant swelling of surrounding tissues. CIA in rats is commonly used to evaluate compounds that might be of potential use as drugs for treatment of rheumatoid arthritis and other chronic inflammatory conditions and is induced in susceptible strains of either mice or rats by injection of CII in incomplete Freund's adjuvant (IFA). Administration of this emulsion gives rise to polyarthritis, characterized by synovial hyperplasia, infiltration of mononuclear cells, pannus formation, and destruction of cartilage and bone. […] Syngeneic LOU rats were immunized on Day 0 with native chicken CII/IFA. Oral treatment began at the onset of arthritis symptoms (Day 10). […] Hind limbs were scored daily for clinical arthritis severity using a standardized method based on the degree of joint inflammation. High resolution digital radiographs of hind limbs were obtained at the conclusion of the study (Day 28). These limbs were also analyzed for histopathologic changes. IgG antibodies to native CII were measured in quadruplicate by ELISA. […] Brahn. 2004). Blinded composite histopathologic studies confirmed the regression of pannus and erosions: […] Antibodies to native CII were not decreased in Compound 1-treated rats.

[6] = system: FcϵRI-dependent production and release of cytokines; assay: FcϵRI-dependent production and release of cytokines; assay type: cell-based; details: read-out: EC50, all cytokines tested
[7] = system: FcϵRI-dependent production and release of LTC4; assay: FcϵRI-dependent production and release of LTC4; assay type: cell-based
[8] = system: collagen antibody-induced arthritis (CAIA); assay: Collagen antibody-induced arthritis (CAIA) model; assay type: in vivo, Balb/c mice
Excerpt: This passive model differs from the traditional rodent collagen-induced arthritis (CIA) in that disease symptoms appear quickly (developing within 24-48 hrs after an IV-injection of antibodies), arthritis is inducible in both CIA-susceptible and CIA-resistant mouse strains, and it allows evaluation of inflammation that is independent of antibody production. CAIA was induced in Balb/c mice by intravenous injection of Arthrogen-CIA® Monoclonal Antibody Blend (Chemicon International, Inc., Temecula, Calif.) via the tail vein, followed 2 days later by an intraperitoneal injection of LPS. […] The severity of the arthritis in hind-paws was scored daily (scale of 0-4 per paw, sum of scores for both hind paws).

CHMCs = assay: Ionomycin-induced degranulation of CHMCs; assay type: cell-based, Human
[9] = GLP mutagenicity and clastogenicity studies (Ames, chromosomal aberration, mouse micronucleus)
Method: (§1) GLP toxicology studies included negative mutagenicity and clastogenicity studies (Ames, chromosomal aberration, and mouse micronucleus). […] The No Observed Adverse Effect Level (NOAEL) is 10-30 mg/kg/day for rats and 100 mg/kg/day for monkeys.

[10] = in vivo
Method: as §1

[11] = system: Reverse Passive Arthus (RPA) reaction; assay: Reverse Passive Arthus (RPA) reaction; assay type: in vivo, rat
Excerpt: IC-mediated acute inflammatory tissue injury is implicated in a variety of human autoimmune diseases, including vasculitis, serum sickness, systemic lupus erythematosus, RA, and glomerulonephritis. The classical experimental model for IC-mediated tissue injury is the Reverse Passive Arthus (RPA) reaction. Intravenous injection of antigen (ovalbumin, OVA) following intradermal injection of antibodies specific to OVA (rabbit anti-OVA IgG) results in perivascular deposition of IC and a rapid inflammatory response characterized by edema, neutrophil infiltration, and hemorrhage at the injection sites (Szalai, et al., 2000, J. Immunol. 164(1):463-468).

[12] = system: Cord-Blood Derived Primary Human Mast Cells (CHMC); assay: FcϵRI-dependent activation of CHMC, activity of tryptase released upon degranulation; assay type: cell-based; details: Mast cell
[13] = water, in water, read-out: solubility
[14] = aqueous buffer, aqueous buffer under physiological conditions, read-out: water solubility
[15] = water, water solubility, read-out: Solubility

- water content ([1]; after humidity is increased): approximately 14.0%
- moisture content ([1]; dry conditions, ambient temperature, about 0% relative humidity): approximately 4.0%
- solubility (Water solubility; [13]): 10000 µg/mL
SMILES: COc1cc(Nc2ncc(F)c(Nc3ccc4c(n3)N(COP(=O)([O-])[O-])C(=O)C(C)(C)O4)n2)cc(OC)c1OC.[Na+].[Na+] [prodrug salt hydrate 32, N4-(2,2-dimethyl-4-[(dihydrogenphosphonoxy)methyl]-3-oxo-5-pyrido[1,4]oxazin-6-yl)-5-fluoro-N2-(3,4,5-trimethoxyphenyl)-2,4-pyrimidinediamine disodium salt hexahydrate]
- stability of hydration over relative humidity ([1]; hexahydrate form): stable over a wide range of relative humidities

- conversion to drug Compound 1 ([2]; microsomal preparations obtained from Xenotech): failed to convert
- solubility of prodrug relative to active drug Compound 1 (Water solubility; aqueous buffer under physiological conditions): approximately 2000 times
- solubility (Water solubility; [14]): > 5000 µg/mL
- solubility (Water solubility; [15]): > 5000 µg/mL
- stability [3]: stable
- plasma profile of prodrug after IV administration ([4]; IV 1 mg/kg in PEG-400): Rapid disappearance
- levels of drug metabolite Compound 1 after oral prodrug ([4]; oral, PEG-400): high levels
- AUC/dose (Compound 1 exposure) / absorption, prodrug vs drug Compound 1 ([4]; oral, Compound 4 4 mg/kg vs Compound 1 2.5 mg/kg in PEG-400): nearly identical
- clearance of prodrug ([4]; study of FIG. 4/5): rapidly cleared
SMILES: COc1cc(Nc2ncc(F)c(Nc3ccc4c(n3)N(COP(=O)(O)O)C(=O)C(C)(C)O4)n2)cc(OC)c1OC [Compound 4, N4-(2,2-dimethyl-4-[(dihydrogenphosphonoxy)methyl]-3-oxo-5-pyrido[1,4]oxazin-6-yl)-5-fluoro-N2-(3,4,5-trimethoxyphenyl)-2,4-pyrimidinediamine]
- stability in rat plasma / hydrolysis to Compound 1 (Stability in rat plasma): metabolize to the active drug Compound 1; also recorded: unstable
- conversion to drug Compound 1 ([2]; intestinal and hepatic microsomes from a different source): metabolize to the active drug Compound 1; also recorded: conversion of Compound 4 to Compound 1 was observed
- systemic presence of prodrug after oral administration ([4]; oral, PEG-400): no prodrug Compound 4 was present systemically
- dependence of absorption on formulation ([4]; rats, PEG-400 and CMC solutions, powder in hard gelatin capsules): not dependent upon formulation; also recorded: not dependent on formulation

SMILES: COc1cc(Nc2ncc(F)c(Nc3ccc4c(n3)NC(=O)C(C)(C)O4)n2)cc(OC)c1OC [Compound 1, N4-(2,2-dimethyl-3-oxo-4H-5-pyrido[1,4]oxazin-6-yl)-5-fluoro-N2-(3,4,5-trimethoxyphenyl)-2,4-pyrimidinediamine]
- arthritis severity ([5]; 30 mg/kg q.d. p.o., evident within 7 days after initiation of therapy, p<0.05): significant reduction
- Mean modified Mankin scores ([5]; 30 mg/kg, vehicle 11.8±0.9, p<0.001): 3.7±0.9
- clinical score ([5]; Day 28, 30 mg/kg, vehicle 6.08±0.67, p<0.001): 2.54±0.98
- joint damage, blinded radiographs ([5]; Day 28, vehicle 3.66±0.71, p<0.02): 1.63±0.67
- Antibodies to native CII ([5]; ELISA, treated rats): not decreased
- EC50 [6]: 158 to 462 nM
- EC50 [7]: 39 nM
- arthritis severity, disease incidence, time of onset ([8]; lower dose levels, p>0.05): the differences were not significant
- clinical arthritis ([8]; oral, b.i.d., vs vehicle, p<0.05): significantly reduced clinical arthritis
- solubility (Water solubility; [14]): < 1 µg/mL
- solubility (Water solubility; phosphate buffer, pH 7.5, aqueous buffer, phosphate buffer at pH=7.5, read-out: measured solubility): < 1 µg/mL
- solubility (Water solubility; [15]): < 1 µg/mL
- inhibition of ionomycin-induced degranulation (CHMCs): does not inhibit
- mutagenicity and clastogenicity [9]: negative
- 28-day toxicity findings ([10]; monkey): reversible effect on hematology
- 28-day toxicity findings ([10]; rat): reversible effect on hematology, liver transaminase (mild effect in the rat only), spleen and thymus size (rat only) and bone marrow cellularity (rat and monkey)
- CD45RA+ cells, immunophenotyping ([10]; rat): significant increase
- Histopathology ([10]; rat): mild reductions in marrow cellularity
- humoral immunity, anti-KLH antibody assessment ([10]; rat): no evidence for untoward effects
- percentage of CD3+ cells, immunophenotyping ([10]; rat): significant decrease
- inhibition at 10 mg/kg ([11]; Rattus norvegicus, 10 mg/kg oral, rats, compared with vehicle control, read-out: inhibition of extravascular leakage of Evans blue dye (OD610) from tissue biopsies): 80%
- cutaneous RPA reaction and inflammatory edema ([11]; single oral treatment of rats one hour prior to antigen/antibody): reduced the cutaneous RPA reaction and inflammatory edema in a dose-dependent manner
- EC50 [12]: ~43 nM

- solubility (Water solubility; [13]): 15 µg/mL
SMILES: COc1cc(Nc2ncc(F)c(Nc3ccc4c(n3)N(COP(=O)(O)O)C(=O)C(C)(C)O4)n2)cc(OC)c1OC [Prodrug Salt 6, N4-(2,2-dimethyl-4-[(dihydrogenphosphonoxy)methyl]-3-oxo-5-pyrido[1,4]oxazin-6-yl)-5-fluoro-N2-(3,4,5-trimethoxyphenyl)-2,4-pyrimidinediamine mono calcium salt]
